The experiment relates to MCF-7 cells. Description: MCF-7 Estrogen Dependent Proliferation Assay. The note with it: Homo sapiens, MCF7, estradiol added to Estrogen Depleted Media (EDM), read-out: EC50 of stimulation of growth of MCF-7 cells. The experiment is classed as cell-based. The source says:
MCF-7 Estrogen Dependent Proliferation Assay MCF-7 cells (ATCC #HTUB-22) are human mammary gland adenocarcinoma cells that require estrogen for growth. The growth media (GM) for the MCF-7 cells is Minimum Essential Media (without phenol red) supplemented with fetal bovine serum(FBS) to 10%. The FBS serves as the sole source of estrogen and this GM supports the full growth of the cells and is used for the routine growth of the cell cultures. When MCF-7 cells are placed in a media in which 10% Charcoal-Dextran treated fetal bovine serum (CD-FBS) is substituted for FBS, the cells will cease to divide but will remain viable. […] The addition of estradiol to EDM stimulates the growth of the MCF-7 cells in a dose dependent manner with an EC50 of […]. Growing MCF-7 cells are washed several times with EDM and the cultures then maintained in EDM for a minimum of 6 days in order to deplete the cells of endogenous estrogen. On day 0 (at the start of the assay), these estrogen depleted cells are plated into 96-well cell culture plates at a density of 1000 cells/well in EDM in a volume of 180 ul/well. […] At this point, the culture supernatants are aspirated, the cells washed 2× with PBS, the wash solution aspirated and the protein content of each well determined. Each drug dilution is evaluated on a minimum of 5 wells and the range of dilution of the test compounds in the assay is 0.001 nM to 1000 nM. […]

With `C[C@]12CC[C@@H]3c4ccc(O)cc4CC[C@H]3[C@@H]1CC[C@@H]2O` [estradiol], the EC50 was determined as 2 pM.

Values taken from patent US20040044226A1, “Estrogen receptor modulators” (priority 2003, published 2004).
